Results as given in paper PMC10319141, “Imidazoquinolines with improved pharmacokinetic properties induce a high IFNα to TNFα ratio in vitro and in vivo” (Frontiers in Immunology, 2023).
Where two headings read alike, the source gives them in different places.

Experiments:
[1] = Compound concentrations in organs and blood after 3, 6, 12 µmol/kg s.c. (Figure 4A); format: in vivo, C57BL/6 mice; details: female, C57BL/6, mouse, sc; for concentration at 8 h: 8 h after treatment; for concentration at 1 h: whole blood (peripheral, tail), 1 h post application, whole blood
Protocol: (§1) All samples were extracted with 3 or 6 volumes acetonitrile containing terbuthylazine as an internal standard (ACN) relative to either sample weight or volume. Liquid samples (plasma, culture medium, cell suspensions in stability experiments) were diluted in either 3 (culture medium, cell suspensions) or 6 (plasma) volumes ACN, pellet and blood samples were extracted by addition of ACN followed by sonication for 5 min. Organ samples were digested with 0.5 µg/mg Proteinase K (Genaxxon) for 1 h at 50°C before being homogenized using a Fastprep FP-24 5G instrument (MP-Biomedicals). Homogenates were diluted with 6 volumes ACN and homogenized again. All extracts were cleared by centrifugation at ~20.000xg for 10 min at 4°C.
(§2) Quantification of analytes was performed on an Agilent 1260/1290 Infinity system fitted with an Agilent C18 Poroshell 120 column (4.6 x 50 mm, 2.7 µm) coupled to a triple quadrupole Sciex API 4000 MS/MS detector. The mobile phase was composed of water containing 0.1% formic acid (eluent A) and acetonitrile containing 0.1% formic acid (eluent B). Gradient used was: 5% B for 0.5 min, to 100% B in 4.5 min, 100% B for 2 min, to 5% B in 0.5 min, 5% for 2.5 min. MS detection parameters are listed in SI Table S1 .
(§3) Formulation. Test compounds were prepared for application in either 1% Tween 80, 9% PEG400 in ultrapure water (Biowest) (i.v., i.p., p.o. application) or 5 mM citric acid in 0.9% saline (Braun) (subcutaneous application). If compounds were administered subcutaneously, injections were carried out into the neck crease.
(§4) Collection of Samples. Mice were bled from the tail vein at various timepoints. Heparin (Sigma) or K2-EDTA (Sigma) was added to blood samples to a final […] concentration of 10-15 Unit or 5 mM. Plasma was generated by centrifugation at 6800xg for 8 min at 4°C and stored at -80°C until analyzed by ELISA or CBA. Animals were sacrificed after the indicated time points by CO2 inhalation. Heart blood and organs for compound quantification by HPLC-MS/MS were collected post mortem and stored at –20°C until extracted as described above.
(A) Organs were sampled 8 h after treatment and compound concentration was determined via HPLC-MS/MS. Data are presented as mean ± SD. (B) Cytokine levels in tail plasma over time were determined via cytometric bead array. At each sampling timepoint the plasma of mice in one treatment group was pooled.

human TLR7 = molecular target: T1, human TLR7 (Homo sapiens, UniProt Q9NYK1); assay: HEK-Blue hTLR7 SEAP reporter assay; format: cell-based; details: for TLR7 activity rel. to assay max: average maximal SEAP secretion relative to maximum secretion observed in the assay
T1 construct: host or cells: HEK blue hTLR7 reporter cells
T1 sequence (Q9NYK1 27-1049): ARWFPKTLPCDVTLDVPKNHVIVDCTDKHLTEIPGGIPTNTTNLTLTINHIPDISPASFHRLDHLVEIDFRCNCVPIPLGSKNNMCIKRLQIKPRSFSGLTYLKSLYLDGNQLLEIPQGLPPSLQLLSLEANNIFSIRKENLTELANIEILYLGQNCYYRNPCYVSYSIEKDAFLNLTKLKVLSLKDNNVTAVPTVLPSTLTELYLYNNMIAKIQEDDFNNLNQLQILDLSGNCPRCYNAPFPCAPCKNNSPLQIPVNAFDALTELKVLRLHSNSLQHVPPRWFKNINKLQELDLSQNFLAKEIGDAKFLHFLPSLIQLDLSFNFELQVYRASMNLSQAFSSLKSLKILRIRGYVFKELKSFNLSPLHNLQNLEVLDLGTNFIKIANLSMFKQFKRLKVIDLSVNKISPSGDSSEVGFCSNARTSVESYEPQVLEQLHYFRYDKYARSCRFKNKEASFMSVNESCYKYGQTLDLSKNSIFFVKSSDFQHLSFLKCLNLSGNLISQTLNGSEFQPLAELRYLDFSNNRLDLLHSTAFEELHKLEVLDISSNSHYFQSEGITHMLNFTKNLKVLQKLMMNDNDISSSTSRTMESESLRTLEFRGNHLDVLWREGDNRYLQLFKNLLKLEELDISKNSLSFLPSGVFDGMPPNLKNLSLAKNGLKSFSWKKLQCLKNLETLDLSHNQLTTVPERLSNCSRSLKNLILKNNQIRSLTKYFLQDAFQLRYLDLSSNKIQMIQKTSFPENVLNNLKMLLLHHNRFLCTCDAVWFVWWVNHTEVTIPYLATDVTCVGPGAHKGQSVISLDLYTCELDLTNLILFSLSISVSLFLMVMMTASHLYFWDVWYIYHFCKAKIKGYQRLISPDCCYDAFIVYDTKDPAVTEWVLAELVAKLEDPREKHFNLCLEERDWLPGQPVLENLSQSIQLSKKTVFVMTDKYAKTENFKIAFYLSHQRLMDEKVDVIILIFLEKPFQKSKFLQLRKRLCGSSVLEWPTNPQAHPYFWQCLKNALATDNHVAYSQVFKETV
Protocol: HEK blue hTLR7 or hTLR8 reporter cells (Invivogen) were cultivated in DMEM High Glucose (Biowest) according to the manufacturer’s instructions. Cells were treated with test compounds and controls at various concentrations in serum-free DMEM and incubated at 37°C, 5% CO2 for 24 h before supernatants were collected.
Relative secreted embryonic alkaline phosphatase (SEAP) activity in the supernatants was determined by quantification of para-Nitrophenyl Phosphate (pNPP)-turnover. Supernatants were diluted 10-fold in a solution containing 1 mM MgCl2, 1 M diethanolamine and 1 mg/mL pNPP and incubated at RT for 15 min before the reaction was stopped by the addition of 0.25 volumes of 1 M NaOH. Absorbance was measured at 405 nm on a Versamax microplate reader (Molecular Devices) and normalized to the mean of >5 solvent controls.
To obtain reliable estimates, replicate measurements of a minimum of 2 experiments were normalized to the maximal SEAP activity of a compound in a given experiment and pooled before fitting a non-linear function to the data.

[2] = Compound concentrations in organs and plasma after three consecutive daily s.c. treatments (Figure 6B, S7); format: in vivo, mice; details: for compound plasma level at peak: s.c.; for concentration at 4 h / concentration at 28 h / concentration at 52 h: mouse, liver, sc, read-out: concentration in liver; for concentration at 4 h / concentration at 28 h / concentration at 52 h / levels in brain tissue / concentration in liver: repeated daily s.c. treatment; for levels in brain tissue: in words
Protocol: as §1, §2, §3, §4
Dotted lines indicate the time of repeated compound applications. (A) Cytokine levels in pooled tail plasma of mice from individual treatment groups (n=3 per pool and time point), error bars represent range of two replicate measurements. (B) Peripheral blood was collected from the tail vein before, 15, 30 60, 120, 240, 360 and 480 min after s.c. treatment. Compound concentration in peripheral plasma was analyzed by HPLC-MS/MS, data presented as mean ± SD.
Samples were collected 4 h, 28 h and 52 h after s.c. treatment. Skin samples were sampled
at time points 4 h and 52 h. Compound concentrations were analyzed by HPLC-MS/MS, data

[3] = kidney, read-out: concentration in kidney
[4] = liver, read-out: concentration in liver
[5] = 95% CI, HEK-blue human TLR7, 24 h, read-out: TLR7 EC50
[6] = Figure S3, axis c/[µM], pooled from 3 experiments, read-out: compound-specific EC50 in dose response plot, HEK Blue hTLR7
[7] = day 1, 60 min after application
[8] = day 2, 60 min after application
[9] = day 3, 60 min after application

concentration at 8 h [1, 3] [nM] | concentration at 8 h [1, 4] [nM] | concentration at 1 h [1] [nM] | Average maximal activity in HEK-Blue hTLR7 relative to RSQ (human TLR7) [%] | EC50 (human TLR7; [5]) [µM] | EC50 (human TLR7; [6]) [µM] | TLR7 activity rel. to assay max (human TLR7) | compound plasma level at peak [2, 7] | compound plasma level at peak [2, 8] | compound plasma level at peak [2, 9] | concentration at 4 h ([2]; after 4 h) [nM] | concentration at 28 h ([2]; after 28 h) [nM] | concentration at 52 h ([2]; after 52 h) [nM] | levels in brain tissue [2] | concentration in liver ([2]; after 4 h) | concentration in liver ([2]; after 28 h) | concentration in liver ([2]; after 52 h) | concentration at 8 h ([1]; lung, read-out: concentration in lung) [nM] | Structure (SMILES)
5480 | 5100 | 696 | 41 | 0.4 to 0.74 | 0.554 | 41% ± 8% | 755 nM | 585 nM | 639 nM | 2620 | 4460 | 6350 | baseline or close to baseline levels | – | – | – | – | CCCCc1nc2c(N)nc3ccccc3c2n1CCC1CCN(C(=O)CN(C)CC(=O)N(C)C2CC(C)OC(OC3C(C)C(OC4CC(C)(OC)C(O)C(C)O4)C(C)C(=O)OC(CC)C(C)(O)C(O)C(C)N(C)CC(C)CC3(C)O)C2O)CC1 (stereo not drawn) [A1-mac]
– | – | – | 63 | 1.5 to 2 | 1.76 | 63% ± 9% | – | – | – | – | – | – | – | – | – | – | – | CCCCc1nc2c(N)nc3ccccc3c2n1CC1CCN(C(=O)CN(C)CC(=O)N(C)[C@H]2C[C@@H](C)O[C@@H](O[C@@H]3[C@@H](C)[C@H](O[C@H]4C[C@@](C)(OC)[C@@H](O)[C@H](C)O4)[C@@H](C)C(=O)O[C@H](CC)[C@@](C)(O)[C@H](O)[C@@H](C)N(C)C[C@H](C)C[C@@]3(C)O)[C@@H]2O)CC1 [A2-mac]
– | – | 175 | – | – | – | 95% ± 5% | < LLOQ | < LLOQ | < LLOQ | – | – | – | baseline or close to baseline levels | < LLOQ | < LLOQ | < LLOQ | – | CCOCc1nc2c(N)nc3ccccc3c2n1CC(C)(C)O [RSQ, Resiquimod, reference compound]
636 | 173 | 1560 | 58 | 0.096 to 0.22 | 0.146 | 58% ± 16% | 171 nM | 85 nM | 66 nM | 63 | 82 | 94 | baseline or close to baseline levels | – | – | – | 868 | CCCCc1nc2c(N)nc3ccccc3c2n1CCC1CCNCC1 [A1]
